# “And” between values parts separate entries of the source, which are not always exact repeats. Equal entries are not always repeated. Structures can show the parent of a compound that is named as a salt.
# Test system: rat model of neuropathic pain
# Assay: Nerve ligation-induced chronic (neuropathic) pain model, mechanical allodynia by electronic von Frey
# Format: in vivo, Wistar rats
# Conditions: for Tactile Pressure (g) Post-Treatment Average / Tactile Pressure (g) Δ Treatment Average: group of 5; for Tactile Pressure (g) Post-Treatment / Tactile Pressure (g) Δ Treatment: individual animal; for Inhibition (%): Δ Treatment/Δ Blank x 100%
# Description: Lofexidine was evaluated for possible analgesic activity in neuropathic pain using a nerve ligation-induced chronic pain model in rats. Lofexidine HCl was administered intrathecally (ITH) at 3.2 and 10 µg/animal and analgesia was measured at 15, 30, 60 and 120 minutes post-dosing using an Electronic Von Frey Aesthesiometer (IITC, USA) with a #12 supertip. A 50 % or greater (≥50%) inhibition relative to blank indicates possible analgesic activity. Lofexidine HCl at doses of 3.2 and 10 µg/animal were administered intrathecally. Sterile Saline (obtained from Sintong Biotech Company, Taiwan) was used as vehicle and dosing volume was 10 µl/animal. Male Wistar rats provided by Biolasco Taiwan (under a Charles River Laboratories Technology Licensee) were used. Space allocation for 6 animals was 45 x 23 x 21 cm. Animals were housed in APEC^R cages and maintained in a controlled temperature (22-23°C) and humidity (60-70%) environment with 12 hours light dark cycles for at least one week in MDS Pharma Services - Taiwan Laboratory prior to use. Free access to standard lab chow for rats (Lab Diet, Rodent Diet, PMI Nutrition International, USA) and tap water was granted. All aspects of this work including housing, experimentation and disposal of animals were performed in general accordance with the Guide for the Care and Use of Laboratory Animals (National Academy Press, Washington, D. C, 1996). Male Wistar rats weighing 160 to 200 g were used. Under pentobarbital (50 mg/kg, 5 ml/kg, i.p.) anesthesia, the sciatic nerve was exposed at mid-thigh level. Three ligatures (4-0 silk suture), about 1 mm apart, were loosely tied around th e nerve. The animals were then housed individually in cages with soft bedding for 7 days before testing for mechanical allodynia. On the test day, rats were placed under inverted plexiglas cages on a wire mesh rack and allowed to acclimatise for 20 to 30 minutes. Allodynia was evaluated by responsiveness to a #12 Supertip® (IITC, USA) applied beneath the mesh floor perpendicular to the central plantar surface of the left hind paw. The tip was gradually applied with sufficient force to cause slight buckling of the filament against the paw. A positive response to the applied tactile pressure, noted by sharp withdrawal of the paw, was recorded automatically by an Electronic Von Frey Aesthesiometer (2290CE Electrovonfrey®, IITC, USA). The endpoint is the withdrawal threshold (gm) to von Frey filament, serving as a measure of analgesic activity. Rats were pre-selected (for presence of allodynia) for experimentation only if the withdrawal threshold 7 days after nerve ligation (pre-treatment) was reduced by 10 grams of force relative to the response of the individual paw before nerve ligation (pre-ligation). Test substance or vehicle was administered intrathecally (3.2 µg and 10 µg/animal) to groups of 5 animals and the level of allodynia was again determined (at 15, 30, 60 and 120 minutes post-treatment). Allodynia is calculated as follows: % Inhibition=Δ Treatment/Δ Blank x 100%; where Δ Treatment is Tactile Pressure [(Post-Treatment) -(Pre-Treatment)] and Δ Blank is Tactile Pressure [(Pre-Ligation) - (Pre-Treatment)]. A 50 percent or greater (≥50%) inhibition relative to blank indicates possible analgesic activity.
# [1] = 3.2 µg/animal ITH, 120 Minutes, listed as Lofexidine HCI
# [2] = 10 µg/animal ITH, 120 Minutes, listed as Lofexidine HCI
structure (smiles),measurement,setting,value
CC(Oc1c(Cl)cccc1Cl)C1=NCCN1 (centres unmarked) [Lofexidine HCl],analgesic activity,3.2 µg/animal,low levels of analgesic activity
same,Tactile Pressure (g) Post-Treatment Average,"3.2 µg/animal ITH, 15 Minutes",12.5 g
same,Tactile Pressure (g) Δ Treatment Average,"3.2 µg/animal ITH, 15 Minutes, Δ Blank 30.2",1.3 g
same,Tactile Pressure (g) Post-Treatment,"3.2 µg/animal ITH, 15 Minutes",8.9 g and 5.8 g and 23.3 g and 13.4 g and 10.9 g
same,Tactile Pressure (g) Δ Treatment,"3.2 µg/animal ITH, 15 Minutes",-1.8 g and -5.2 g and 8.5 g and 6.3 g and -1.1 g
same,Inhibition (%),"3.2 µg/animal ITH, 15 Minutes",4%
same,Tactile Pressure (g) Post-Treatment Average,"3.2 µg/animal ITH, 30 Minutes",10.1 g
same,Tactile Pressure (g) Δ Treatment Average,"3.2 µg/animal ITH, 30 Minutes, Δ Blank 30.2",-1.1 g
same,Tactile Pressure (g) Post-Treatment,"3.2 µg/animal ITH, 30 Minutes",7.4 g and 14.2 g and 8.5 g and 10.0 g and 10.2 g
same,Tactile Pressure (g) Δ Treatment,"3.2 µg/animal ITH, 30 Minutes",-3.8 g and -0.6 g and 1.4 g and -2.0 g and -0.5 g
same,Inhibition (%),"3.2 µg/animal ITH, 30 Minutes",-4%
same,Tactile Pressure (g) Post-Treatment Average,"3.2 µg/animal ITH, 60 Minutes",9.3 g
same,Tactile Pressure (g) Δ Treatment Average,"3.2 µg/animal ITH, 60 Minutes, Δ Blank 30.2",-1.8 g
same,Tactile Pressure (g) Post-Treatment,"3.2 µg/animal ITH, 60 Minutes",7.5 g and 12.7 g and 11.3 g and 6.5 g and 8.7 g
same,Tactile Pressure (g) Δ Treatment,"3.2 µg/animal ITH, 60 Minutes",-3.7 g and -2.1 g and 4.2 g and -5.5 g and -2.0 g
same,Inhibition (%),"3.2 µg/animal ITH, 60 Minutes",-6%
same,Tactile Pressure (g) Post-Treatment Average,"3.2 µg/animal ITH, 120 Minutes",9.2 g
same,Tactile Pressure (g) Δ Treatment Average,"3.2 µg/animal ITH, 120 Minutes, Δ Blank 30.2",-2.0 g
same,Tactile Pressure (g) Post-Treatment,[1],6.1 g and 12.4 g and 7.9 g and 10.8 g and 8.6 g
same,Tactile Pressure (g) Δ Treatment,[1],-5.1 g and -2.4 g and 0.8 g and -1.2 g and -2.1 g
same,Inhibition (%),"3.2 µg/animal ITH, 120 Minutes",-7%
same,Tactile Pressure (g) Post-Treatment Average,"10 µg/animal ITH, 15 Minutes",23.3 g
same,Tactile Pressure (g) Δ Treatment Average,"10 µg/animal ITH, 15 Minutes, Δ Blank 27.9",13.0 g
same,Tactile Pressure (g) Post-Treatment,"10 µg/animal ITH, 15 Minutes",>36.8 g and 12.4 g and 17.2 g and 26.7 g and 23.6 g
same,Tactile Pressure (g) Δ Treatment,"10 µg/animal ITH, 15 Minutes",24.7 g and 1.5 g and 11.0 g and 15.7 g and 12.3 g
same,Inhibition (%),"10 µg/animal ITH, 15 Minutes",47%
same,Tactile Pressure (g) Post-Treatment Average,"10 µg/animal ITH, 30 Minutes",26.4 g
same,Tactile Pressure (g) Δ Treatment Average,"10 µg/animal ITH, 30 Minutes, Δ Blank 27.9",16.1 g
same,Tactile Pressure (g) Post-Treatment,"10 µg/animal ITH, 30 Minutes",42.6 g and 7.0 g and >31.5 g and >35.5 g and 15.6 g
same,Tactile Pressure (g) Δ Treatment,"10 µg/animal ITH, 30 Minutes",30.5 g and -3.9 g and 25.3 g and 24.5 g and 4.3 g
same,Inhibition (%),"10 µg/animal ITH, 30 Minutes",58%
same,Tactile Pressure (g) Post-Treatment Average,"10 µg/animal ITH, 60 Minutes",20.8 g
same,Tactile Pressure (g) Δ Treatment Average,"10 µg/animal ITH, 60 Minutes, Δ Blank 27.9",10.5 g
same,Tactile Pressure (g) Post-Treatment,"10 µg/animal ITH, 60 Minutes",20.5 g and 15.1 g and 36.5 g and 23.2 g and 8.9 g
same,Tactile Pressure (g) Δ Treatment,"10 µg/animal ITH, 60 Minutes",8.4 g and 4.2 g and 30.3 g and 12.2 g and -2.4 g
same,Inhibition (%),"10 µg/animal ITH, 60 Minutes",38%
same,Tactile Pressure (g) Post-Treatment Average,"10 µg/animal ITH, 120 Minutes",11.0 g
same,Tactile Pressure (g) Δ Treatment Average,"10 µg/animal ITH, 120 Minutes, Δ Blank 27.9",0.6 g
same,Tactile Pressure (g) Post-Treatment,[2],13.5 g and 10.8 g and 11.8 g and 12.3 g and 6.4 g
same,Tactile Pressure (g) Δ Treatment,[2],1.4 g and -0.1 g and 5.2 g and 1.3 g and -4.9 g
same,Inhibition (%),"10 µg/animal ITH, 120 Minutes",2%
same,"peak of analgesic activity, time post-dosing",10 µg/animal intrathecal,30 min
same,analgesic activity,"10 µg/animal intrathecal, 30 minutes post-injection",significant analgesic activity
same,analgesic activity,"10 µg/animal intrathecal, 120 minutes post-dosing",no longer evident

# — patent EP1762239A1, “Lofexidine for intraspinal administration” (Texcontor Etablissement, priority 2005, dated 2007)
